# Measurements as given in patent publication US10138255B2, “Piperazine derivatives as HIV protease inhibitors” (Merck Sharp & Dohme Corp., priority 2014, dated 2018).
# Test system: HIV-1 (H9IIIB strain)
# Test: Cell-Based HIV Infection Assay Using a Reporter (MT4-GFP cells)
# Details: Human immunodeficiency virus 1, inflection point (IP) of viral growth inhibition; MT4-GFP cells infected with HIV-1 H9IIIB; 50% normal human serum; mean of at least two independent experiments; read-out: Cell Based IP (50% NHS)
# How it was run: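 Inflection point from a 4-parameter curve of % viral growth inhibition, normalised to DMSO and triple-drug controls, using the 48 h/24 h ratio of GFP-positive cells (R0). MT4-GFP cells pre-infected 24 h with HIV-1 H9IIIB at low MOI; compounds tested in 50% normal human serum, 0.4% DMSO; mean of ≥2 experiments.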
row,Structure (SMILES),EC50
1,"COc1ccc([C@H](c2ccc(Cl)cc2)[C@H](N)C(=O)N[C@H]2CCC[C@@H]2CC[C@H]2CN[C@@H]3CCCS(=O)(=O)N2C3)cn1 [Example 80, (βS)-4-chloro-N-[(1S,2R)-2-{2-[(6R,9S)-2,2-dioxido-2-thia-1,7-diazabicyclo[4.3.1]dec-9-yl]ethyl}cyclopentyl]-β-(6-methoxypyridin-3-yl)-L-phenylalaninamide]",71 nM
2,"N[C@H](C(=O)N[C@H]1CCC[C@@H]1CC[C@H]1CN[C@@H]2CCCS(=O)(=O)N1C2)[C@H](c1cncc(F)c1)c1ccc(Cl)c(F)c1 [Example 81, (βS)-4-chloro-N-[(1S,2R)-2-{2-[(6R,9S)-2,2-dioxido-2-thia-1,7-diazabicyclo[4.3.1]dec-9-yl]ethyl}cyclopentyl]-3-fluoro-β-(5-fluoropyridin-3-yl)-L-phenylalaninamide]",68 nM
3,"COC(=O)N[C@H](C(=O)N[C@H]1CCC[C@@H]1CC[C@H]1CN[C@@H]2CCCS(=O)(=O)N1C2)[C@@H](c1ccccc1)c1ccc(OC)nc1 [Example 82, methyl {(1S)-2-{[(1S,2R)-2-{2-[(6R,9S)-2,2-dioxido-2-thia-1,7-diazabicyclo[4.3.1]dec-9-yl]ethyl}cyclopentyl]amino}-1-[(S)-(6-methoxypyridin-3-yl)(phenyl)methyl]-2-oxoethyl}carbamate]",160 nM
4,"COC(=O)N[C@H](C(=O)Nc1cccc(F)c1CC[C@H]1CN[C@@H]2CCCS(=O)(=O)N1C2)C(c1ccc(F)cc1)[C@H]1C[C@@H](C)O[C@@H](C)C1 (stereo partly drawn) [Example 83, methyl [(1S)-2-[(2R,4r,6S)-2,6-dimethyltetrahydro-2H-pyran-4-yl]-1-[(2-{2-[(6R,9S)-2,2-dioxido-2-thia-1,7-diazabicyclo[4.3.1]dec-9-yl]ethyl}-3-fluorophenyl)carbamoyl]-2-(4-fluorophenyl)ethyl]carbamate]",8.2 nM
5,"N[C@H](C(=O)Nc1cccc(F)c1OCC1CNC2CCCS(=O)(=O)N1C2)[C@@H](c1ccc(F)cc1)c1cc(F)cc(F)c1 (stereo partly drawn) [Example 84, (βS)-β-(3,5-difluorophenyl)-N-{2-[(2,2-dioxido-2-thia-1,7-diazabicyclo[4.3.1]dec-9-yl)methoxy]-3-fluorophenyl}-4-fluoro-L-phenylalaninamide]",210 nM
6,"COC(=O)N[C@H](C(=O)Nc1cccc(F)c1OCC1CNC2CCCS(=O)(=O)N1C2)[C@@H](c1ccc(F)cc1)c1cc(F)cc(F)c1 (stereo partly drawn) [Example 85, methyl [(1S,2S)-2-(3,5-difluorophenyl)-1-({2-[(2,2-dioxido-2-thia-1,7-diazabicyclo[4.3.1]dec-9-yl)methoxy]-3-fluorophenyl}carbamoyl)-2-(4-fluorophenyl)ethyl]carbamate]",150 nM
7,"N[C@H](C(=O)Nc1cccc(F)c1CCC1CNC2CCCS(=O)(=O)N1C2)[C@@H](c1ccc(F)cc1)C12CC(C1)C2 (stereo partly drawn) [Example 86, (βR)-β-bicyclo[1.1.1]pent-1-yl-N-{2-[2-(2,2-dioxido-2-thia-1,7-diazabicyclo[4.3.1]dec-9-yl)ethyl]-3-fluorophenyl}-4-fluoro-L-phenylalaninamide]",340 nM
8,"COC(=O)N[C@H](C(=O)Nc1cccc(F)c1CCC1CNC2CCCS(=O)(=O)N1C2)[C@@H](c1ccc(F)cc1)C12CC(C1)C2 (stereo partly drawn) [Example 87, methyl [(1S,2R)-2-bicyclo[1.1.1]pent-1-yl-1-({2-[2-(2,2-dioxido-2-thia-1,7-diazabicyclo[4.3.1]dec-9-yl)ethyl]-3-fluorophenyl}carbamoyl)-2-(4-fluorophenyl)ethyl]carbamate]",130 nM
9,"CO[C@H](C(C)C)[C@H](c1ccc(F)cc1)[C@H](N)C(=O)Nc1cccc(F)c1CCC1CN[C@@H]2CCCS(=O)(=O)N1C2 (stereo partly drawn) [Example 88, (βR)-N-(2-{2-[(6R)-2,2-dioxido-2-thia-1,7-diazabicyclo[4.3.1]dec-9-yl]ethyl)-3-fluorophenyl)-4-fluoro-β-[(1R)-1-methoxy-2-methylpropyl]-L-phenylalaninamide]",91 nM
10,"N[C@H](C(=O)Nc1cccc(F)c1CCC1CNC2CCCS(=O)(=O)N1C2)[C@@H](c1ccc(Cl)cc1)c1ccc(C(F)(F)F)nc1 (stereo partly drawn) [Example 89, (βS)-4-chloro-N-{2-[2-(2,2-dioxido-2-thia-1,7-diazabicyclo[4.3.1]dec-9-yl)ethyl]-3-fluorophenyl}-β-[6-(trifluoromethyl)pyridin-3-yl]-L-phenylalaninamide]",5.1 nM
11,"COC(=O)N[C@H](C(=O)Nc1cccc(F)c1CCC1CN[C@@H]2CCCS(=O)(=O)N1C2)[C@H](CC(C)C)c1ccc(F)cc1 (stereo partly drawn) [Example 90, methyl [(1S,2R)-1-[(2-{2-[(6R)-2,2-dioxido-2-thia-1,7-diazabicyclo[4.3.1]dec-9-yl]ethyl}-3-fluorophenyl)carbamoyl]-2-(4-fluorophenyl)-4-methylpcnlyl]carbamate]",23 nM
12,"N[C@H](C(=O)Nc1c(F)ccc(F)c1CC[C@H]1CN[C@@H]2CCCS(=O)(=O)N1C2)[C@@H](c1ccc(Cl)cc1)C1CCOCC1 [Example 91, (βR)-4-chloro-N-(2-{2-[(6R,9S)-2,2-dioxido-2-thia-1,7-diazabicyclo[4.3.1]dec-9-yl]ethyl}-3,6-difluorophenyl)-β-(tetrahydro-2H-pyran-4-yl)-L-phenylalaninamide]",22 nM
13,"COC(=O)N[C@H](C(=O)N[C@H]1CCCC[C@@H]1CC[C@H]1CN[C@@H]2CCCS(=O)(=O)N1C2)C(c1ccc(F)cc1)c1ccc(F)cc1 [Example 92, methyl [(1S)-1-[bis(4-fluorophenyl)methyl]-2-{[(1S,2R)-2-{2-[(6R,9S)-2,2-dioxido-2-thia-1,7-diazabicyclo[4.3.1]dec-9-yl]ethyl}cyclohexyl]amino}-2-oxoethyl]carbamate]",56 nM
14,"N[C@H](C(=O)N[C@H]1CCCC[C@@H]1CC[C@H]1CN[C@@H]2CCCS(=O)(=O)N1C2)C(c1ccc(F)cc1)c1ccc(F)cc1 [Example 93, N-[(1S,2R)-2-{2-[(6R,9S)-2,2-dioxido-2-thia-1,7-diazabicyclo[4.3.1]dec-9-yl]ethyl)cyclohexyl]-4-fluoro-β-(4-fluorophenyl)-L-phenylalaninamide]",56 nM
15,"CC(C)n1cc([C@H](c2ccc(Cl)cc2)[C@H](N)C(=O)Nc2cccc(F)c2CCC2CNC3CCCS(=O)(=O)N2C3)ccc1=O (stereo partly drawn) [Example 95, (βS)-4-chloro-N-{2-[2-(2,2-dioxido-2-thia-1,7-diazabicyclo[4.3.1]dec-9-yl)ethyl]-3-fluorophenyl}-β-[1-(1-methylethyl)-6-oxo-1,6-dihydropyridin-3-yl]-L-phenylalaninamide]",63 nM
16,"COC(=O)N[C@H](C(=O)N[C@H]1CCCC[C@@H]1CC[C@H]1CN[C@@H]2CCCS(=O)(=O)N1C2)[C@@H](c1ccc(Cl)cc1)C(C)C [Example 96, methyl [(1S,2S)-2-(4-chlorophenyl)-1-{[(1S,2R)-2-{2-[(6R,9S)-2,2-dioxido-2-thia-1,7-diazabicycIo[4.3.1]dec-9-yl]ethyl}cyclohexyl]carbamoyl}-3-methylbutyl]carbamate]",180 nM
17,"COC(=O)N[C@H](C(=O)N[C@H]1CCCC[C@@H]1CC[C@H]1CN[C@@H]2CCCS(=O)(=O)N1C2)[C@H](c1cncc(C(F)(F)F)c1)c1ccc(Cl)c(F)c1 [Example 97, methyl {(1S,2S)-2-(4-chloro-3-fluorophenyl)-1-{[(1S,2R)-2-{2-[(6R,9S)-2,2-dioxido-2-thia-1,7-diazabicyclo[4.3.1]dec-9-yl]ethyl}cyclohexyl]carbamoyl}-2-[5-(trifluoromethyl)pyridin-3-yl]ethyl}carbamate]",19 nM
18,"COC(=O)N[C@H](C(=O)N[C@H]1CCCC[C@@H]1CC[C@H]1CN[C@@H]2CCCS(=O)(=O)N1C2)[C@@H](c1ccc(Cl)cc1)c1ccc(OC)nc1 [Example 98, methyl [(1S,2S)-2-(4-chlorophenyl)-1-{[(1S,2R)-2-{2-[(6R,9S)-2,2-dioxido-2-thia-1,7-diazabicyclo[4.3.1]dec-9-yl]ethyl}cyclohexyl]carbamoyl}-2-(6-methoxypyridin-3-yl)ethyl]carbamate]",47 nM
19,"COC(=O)N[C@H](C(=O)N[C@H]1CCCC[C@@H]1CC[C@H]1CN[C@@H]2CCCS(=O)(=O)N1C2)[C@H](c1cncc(F)c1)c1ccc(Cl)c(F)c1 [Example 99, methyl [(1S,2S)-2-(4-chloro-3-fluorophenyl)-1-{[(1S,2R)-2-{2-[(6R,9S)-2,2-dioxido-2-thia-1,7-diazabicyclo[4.3.1]dec-9-yl]ethyl}cyclohexyl]carbamoyl}-2-(5-fluoropyridin-3-yl)ethyl]carbamate]",55 nM
20,"COC(=O)N[C@H](C(=O)N[C@H]1CCCC[C@@H]1CC[C@H]1CN[C@@H]2CCCS(=O)(=O)N1C2)[C@@H](c1ccc(Cl)cc1)c1cc(F)cc(F)c1 [Example 100, methyl [(1S,2S)-2-(4-chlorophenyl)-2-(3,5-difluorophenyl)-1-{[(1S,2R)-2-{2-[(6R,9S)-2,2-dioxido-2-thia-1,7-diazabicyclo[4.3.1]dec-9-yl]ethyl}cyclohexyl]carbamoyl}ethyl]carbamate]",24 nM
21,"COC(=O)N[C@H](C(=O)Nc1cccc(F)c1CCC1CNC2CCCS(=O)(=O)N1C2)[C@@H](c1ccc(Cl)cc1)c1ccc(=O)n(C(C)C)c1 (stereo partly drawn) [Example 101, methyl {(1S,2S)-2-(4-chlorophenyl)-1-({2-[2-(2,2-dioxido-2-thia-1,7-diazabicyclo[4.3.1]dec-9-yl)ethyl]-3-fluorophenyl}carbamoyl)-2-[1-(1-methylethyl)-6-oxo-1,6-dihydropyridin-3-yl]ethyl}carbamate]",59 nM
22,"COC(=O)N[C@H](C(=O)Nc1cccc(F)c1CC[C@H]1CN[C@@H]2CCC(C)(C)S(=O)(=O)N1C2)[C@@H](c1ccc(F)cc1)[C@H]1C[C@@H](C)O[C@@H](C)C1 [Example 102, methyl {(1S)-2-[(2-{2-[(6R,9S)-3,3-dimethyl-2,2-dioxido-2-thia-1,7-diazabicyclo[4.3.1]dec-9-yl]ethyl}-3-fluorophenyl)amino]-1-[(R)-[(2R,4r,6S)-2,6-dimethyltetrahydro-2H-pyran-4-yl](4-fluorophenyl)methyl]-2-oxoethyl}carbamate]",32 nM
